What was measured:
Type in all cases: ADME, organism-based
[1] = Dose normalized AUC in rat at 2 mg/kg, po by LC/MS/MS analysis; conditions: in vivo
[2] = Half life in rat at 1 mg.kg, iv or 2 mg/kg, po by LC/MS/MS analysis; conditions: in vivo
[3] = Clearance in rat at 1 mg/kg, iv or 2 mg/kg, po by LC/MS/MS analysis; conditions: in vivo
[4] = Volume of distribution at steady state in rat at 1 mg/kg, iv or 2 mg/kg, po by LC/MS/MS analysis; conditions: in vivo, read-out: Vdss
[5] = Oral bioavailability in rat at 2 mg/kg by LC/MS/MS analysis; conditions: in vivo

Structure (SMILES): CC[C@](CO)(c1ccc(Cl)cc1)n1ccc2c(NS(C)(=O)=O)cccc21
- AUC/dose [1]: 0.67 µM·kg·h/mg
- half-life [2]: 1.5 h
- clearance [3]: 41 mL/min/kg
- Vd [4]: 4.1 L/kg
- bioavailability [5]: 65%

Structure (SMILES): CC[C@](C(=O)NC)(c1ccc(Cl)cc1)n1ccc2c(NS(C)(=O)=O)cccc21
- AUC/dose [1]: 0.13 µM·kg·h/mg
- half-life [2]: 0.6 h
- clearance [3]: 67 mL/min/kg
- Vd [4]: 2.8 L/kg
- bioavailability [5]: 21%

From ChEMBL document CHEMBL4715716, “Discovery of novel non-steroidal reverse indole mineralocorticoid receptor antagonists” (Bioorg Med Chem Lett, 2016)
